Values quoted from earlier work, collected in US8907090B2, “Processes for preparing different forms of (S)-(+)-Clopidogrel bisulfate” (Cadila Healthcare Limited, priority 2003, dated 2014).

Experiments:
[1] = tested on: platelet aggregation; conditions: comparison of enantiomers
[2] = comparison of enantiomers

In the case of `COC(=O)[C@H](c1ccccc1Cl)N1CCc2sccc2C1` (single isomer, unassigned) [dextrorotatory enantiomer], the antiaggregant platelet activity [1] is listed as “excellent antiaggregant platelet activity”.
In the case of `COC(=O)C(c1ccccc1Cl)N1CCc2sccc2C1` (single isomer, unassigned) [levorotatory enantiomer], the tolerance [2] is given as “less tolerated” and the antiaggregant platelet activity [1] is given as “less active”.
